Measured values: patent publication US6881729B2, “Bile compound and method of controlling behavior of lampreys therewith” (Board of Trustees of Michigan State University, priority 2001, dated 2005)

Columns and labels:
[1] = tested on: antibody against 3kPZS (polyclonal antiserum L286); assay: ELISA cross-reactivity of the antiserum; assay type: binding, rabbit
Procedure: Plates were coated with polyclonal goat anti-rabbit IgG (Sigma; product code R2004) by adding 120 μL of antibody diluted in 0.05 M potassium phosphate buffer, pH 7.4 to each well and incubating overnight at 4° C. The plates were blocked by addition of 100 μL of 3% BSA in 0.1 M potassium phosphate buffered saline and storage at 4° C. for at least 12 h.
Non-specific binding (NSB) and maximum binding (B0) were measured in separate wells. Water washings, extracts, or HPLC fractions were diluted 20 times in assay buffer and 100 μL added to wells in duplicate; 50 μL of the diluted enzyme label (1:2000) was added to all wells and 50 μL of primary antibody (1:500,000) was added to all but NSB wells. Plates were incubated for 2 h at room temperature in a humid chamber. Then, after rinsing three times with wash buffer, 200 μL Ellmans reagent (4.3 mg DTNB, and 4 mg acetyl thiocholine in 20 mL 0.02 M potassium phosphate buffer) was added to each well. The plates were sealed and incubated overnight at room temperature in a humid chamber.
To test the cross-reactivity of the antibody to structurally related compounds, serial dilutions of ACA, PZ, PZS, CA, 3kACA, and 3kPZ were assayed alongside the 3kPZS standard.

[2] = diethyl ether extraction from buffers of different pH; assay type: physicochemical; settings: pH 4
Procedure: A trial was carried out in which a mixture of synthetic 3kPZS and 3kACA was dissolved in buffers of different pH and then extracted with diethyl ether. […] Based on this observation, an extract from 1 L of water that had been conditioned by a spermiating male was redissolved in 100 μL methanol and 900 μL of 0.05 M sodium acetate buffer, pH 4.0. This was extracted four times with 3 mL diethyl ether. The residue was then separated by HPLC as described above and the fractions assayed with the ELISA. Some of the extract which had not been treated with diethyl ether was treated in the same way. After these separations had been performed, standard synthetic 3kACA, 3kPZS and 3kPZ (200 μg each) were run on the column under identical conditions.

[3] = tested on: ovulated females; assay: two-choice maze behavioral test (preference and searching); assay type: in vivo, sea lamprey, Petromyzon marinus
Excerpt: Behavioral tests confirmed that the odor of spermiating males influences the distribution and locomotor activities of ripe females in a two-choice maize as follows. Animals were classified as spermiating males and ovulated females if milt and eggs, respectively, could be expressed by manual pressure, or otherwise as non-spermiating males and pre-ovulatory females, and used as either test subjects or odor donors in a flow through (0.07 m/s) maze (L 4.6 m×W 1.2 m) with plywood bottom, sides, and a partition in the middle which extended 2.4 m from the upstream end, and with plastic meshes blocking fish movement at both the upstream and downstream ends. Odor donors were held above the upstream mesh. Between 0700 and 1700 h, a single test subject was acclimated for 10 min in the maze, and its behavior video recorded for 20 min. Then, 5 lampreys (all of one sex and maturity) were introduced into the mesh chamber on a randomly chosen side, and behavior of test subjects recorded for another 20 min. When washings were used, a spermiating male was held in 10 L of water for four hours and the water introduced into the odor chamber at 75 mL/min. Naïve observers scored videotapes for the total time spent in each side before (Be and Bc) and after (Ae and Ac) odorant introduction. The scores were used to calculate an index of preference: I=(Ae/(Ae+Be))−(Ac/(Ac+Bc)). A similar index was computed for searching behaviors which involved pacing back and forth across the upstream barrier, increased swimming speed, and rapid beating of the tail.
When tested in a two-choice maze, ovulated females (but not males or pre-ovulatory females) spent more time in the compartment scented with washings from spermiating males (Table 1). There was no preference of ovulated females for washings of pre-spermiating males or females.
From this we estimated that in the two-choice maze experiments with live males, the pheromone reached a concentration between 0.1 and 0.2 ηM. Therefore, the converted PS was tested in the two-choice maze at a final concentration of 0.17 ηM.

[4] = tested on: olfactory organs of adult females; assay: electro-olfactography (EOG); assay type: in vivo, sea lamprey
Excerpt: The response magnitude is expressed as the percentage of responses to 10^−5 M L-arginine, the standard odorant. Vertical bars, one standard deviation.

[5] = long-term storage of natural compound in ethanol; assay type: physicochemical; settings: 1 mg/mL in ethanol at −20° C. for over one year
Excerpt: In Example 1, only a small supply of synthetic 3kPZS had been produced by enzymatic oxidation of the 3α-hydroxyl group of PZS. This restricted the number of comparisons that could be made between the natural and synthetic 3kPZS. This example completes these studies. This example confirms that both synthetic and natural 3kPZS have the same chromatographic properties and behave in the same way when treated with 3α-HSD and sulfatase. […] The reason for this has not been fully established. However, the natural compound that was used in this example had been stored at 1 mg/mL in ethanol at −20° C. for over one year, whereas the synthetic compound had been made up freshly. The possibility is that the sulfate group is unstable in long-term storage.

[6] = weight for weight basis, compared with 3kPZS
[7] = ovulated females, final concentration of 0.17 ηM
[8] = ovulated females, flow-through maze, washings introduced at 75 mL/min, PP at final concentration of 0.17 ηM
[9] = ovulated females, searching behavior

C[C@H](CCC(=O)O)[C@H]1CC[C@H]2[C@@H]3[C@H](O)C[C@H]4CC(=O)CC[C@]4(C)[C@H]3C[C@H](O)[C@]12C [3kACA, 7α,12α-dihydroxy-5α-cholan-3-one-24-oic acid]
cross-reaction with the antiserum ([1]; relative to 3kPZS standard): 100%
cross-reaction with the antiserum [1, 6]: equally well
extraction into the diethyl ether phase [2]: could be extracted into the diethyl ether phase

C[C@H](CCCO)[C@H]1CC[C@H]2[C@@H]3[C@H](O)C[C@H]4CC(=O)CC[C@]4(C)[C@H]3C[C@H](O)[C@]12C [3kPZ, 7α,12α,24-trihydroxy-5α-cholan-3-one]
cross-reaction with the antiserum ([1]; relative to 3kPZS standard): 100%
cross-reaction with the antiserum [1, 6]: equally well

CC(CCCOS(=O)(=O)O)C1CCC2C3C(O)CC4CC(=O)CCC4(C)C3CC(O)C12C (stereo not drawn) [3kPZS, 7α,12α,24-trihydroxy-5α-cholan-3-one-24-sulfate]
level at which it attracts ovulated females ([3]; in words): sub-nanomolar
searching behavior in the scented side [3, 7]: increased searching behavior
time spent in the scented side [3, 7]: spent a longer time
No. animals that spent more time on side that was: Scented [3, 8]: 8
No. animals that spent more time on side that was: Unscented [3, 8]: 0
No. animals that spent more time searching on side that was: Scented [3, 9]: 6
No. animals that spent more time searching on side that was: Unscented [3, 9]: 0
olfactory stimulation by EOG ([4]; adult females): highly stimulatory
detection threshold ([4]; worked out from release rate and EOG detection of male washings after dilution of 10^6 times): about 10^−12 molar
extraction into the diethyl ether phase [2]: not
stability in storage [5]: appeared to have broken down to 3kPZ

C[C@H](CCCOS(=O)(=O)O)[C@H]1CC[C@H]2[C@@H]3[C@H](O)C[C@H]4C[C@H](O)CC[C@]4(C)[C@H]3C[C@H](O)[C@]12C [PZS, 3α,7α,12α,24-tetrahydroxy-5α-cholan-24-sulfate]
cross-reaction with the antiserum ([1]; relative to 3kPZS standard): 1.6%
